Experimental data published in paper PMC5588088, “Topological Dissection of the Membrane Transport Protein Mhp1 Derived from Cysteine Accessibility and Mass Spectrometry” (Analytical Chemistry, 2017).

Tests used:
Mhp1 [1] = molecular target: T1, Mhp1 (Microbacterium maritypicum, UniProt D6R8X8); assay: tryptophan fluorescence quenching titration; format: binding; conditions: 140 mM NaCl (also 15 and 1000 mM)
T1 construct: gene hyuP; full-length wild type with C-terminal His6 tag, purified in DDM
T1 sequence (D6R8X8 whole entry): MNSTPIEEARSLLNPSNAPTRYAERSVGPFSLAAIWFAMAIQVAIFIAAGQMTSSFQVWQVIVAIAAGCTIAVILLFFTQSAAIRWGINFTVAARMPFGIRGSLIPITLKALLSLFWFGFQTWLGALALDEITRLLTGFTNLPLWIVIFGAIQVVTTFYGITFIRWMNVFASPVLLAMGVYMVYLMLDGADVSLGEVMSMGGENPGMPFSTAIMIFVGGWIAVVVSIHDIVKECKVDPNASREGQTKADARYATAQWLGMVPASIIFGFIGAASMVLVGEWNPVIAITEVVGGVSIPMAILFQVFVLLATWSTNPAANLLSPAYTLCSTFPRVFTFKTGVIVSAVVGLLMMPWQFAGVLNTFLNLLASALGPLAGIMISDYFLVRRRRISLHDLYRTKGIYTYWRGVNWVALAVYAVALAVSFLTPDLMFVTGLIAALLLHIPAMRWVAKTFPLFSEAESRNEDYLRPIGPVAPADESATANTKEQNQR

Mhp1 [2] = molecular target: T1, Mhp1; assay: NEM labelling of Cys327 with intact mass spectrometry, protection by ligand; format: binding; conditions: 140 mM Na+, pH 8, 25 °C, 0.05% DDM

Compound	Kd app (Mhp1 [1])	reduction in NEM labeling at 2 mM (Mhp1 [2])
O=C1NC(=O)[C@H](Cc2ccccc2)N1 [L-BH, 5-benzyl-L-hydantoin]	Tryptophan fluorescence quenching of Mhp1 upon titration with L-BH	–
O=C1NC(=O)[C@H](Cc2c[nH]c3ccccc23)N1 [L-IMH, 5-indolylmethyl-L-hydantoin]	–	5-indolylmethyl-L-hydantoin (L-IMH)
